Each compound was assayed on endogenous target monocytes in human PBMC (assay: PBMC ex vivo monocyte depletion flow cytometry assay (Example 200)). Conditions: with anti-cotinine antibody (SEQ ID NO: 11/12), 18-24 hours, EC50 in molar, read-out: Ex Vivo Depletion Assay pEC50 (converted).
Assay type: cell-based
Protocol: A human PBMC (peripheral blood mononuclear cells) monocyte depletion flow cytometry assay was developed to screen compounds in a 384-well plate format. This assay incorporated endogenous natural killer cells to deplete endogenous target monocytes.
To screen compounds in the human PBMC monocyte depletion flow cytometry assay, 11-point dose-response curves were made from 1 mM stocks in neat DMSO by serially diluting an ARM compound of Formula (I) four-fold into a 384-well plate row-wise. These serially diluted compounds were then stamped into a flat bottom polypropylene 384-well plate (Greiner Bio-One) at 100 nL/well. Fifty microliters of 30 μg/mL anti-cotinine antibody having a heavy chain sequence of SEQ ID NO: 11 and a light chain sequence of SEQ ID NO: 12 (rabbit variable region with human IgG1 Fc domain containing a DE mutation (S239D/1332E)) that had been diluted in assay medium (RPMI 1640 (Gibco) containing 10% fetal bovine serum (Gibco), 1% Glutamax (Gibco) and 1% sodium pyruvate (Corning) was added to the wells of the plate. The plate was centrifuged for 1 min at 500 rpm (revolutions per minute) and then shaken for 5 min at room temperature. The plate was incubated for 15 minutes at 37° C./5% CO2.
Frozen PBMC cells (HemaCare BioResearch) were thawed and centrifuged at 1,200 rpm for 4 minutes. The cells were diluted to a cell density of 2×10^6 cells/mL in assay medium. Fifty microliters of the diluted cells were added to the wells of the plate. The plate was centrifuged for 1 min at 500 rpm and incubated for 18-24 hours at 37° C./5% CO2.
After 18-24 hours incubation, 2 μL of 6.25 μg human FC block (BD Pharmingen) that was diluted in assay medium was added to the wells of the plate. The plate was centrifuged for 1 minute at 500 rpm and then incubated at room temperature for 15 minutes. Five microliters of 750 nM Helix NP NIR (Biolegend) that had been diluted in assay medium was added to the wells of the plate. Nine microliters of antibody cocktail containing 1/5 diluted fluorescein isothiocyanate (FITC) labeled anti-CD45 antibody (Beckman Coulter), PC7 labeled anti-CD14 antibody (Beckman Coulter) and phyocoerythrin (PE) anti-CD4 antibody (Beckman Coulter) was then added to the wells of the plate. The plate was centrifuged for 1 min at 500 rpm and incubated for 30 minutes at 4-8° C. Samples from the plate were run on BD FACS Canto II flow cytometer and data was analyzed using FlowJo software.
ARMs compounds of Formula (I) of the invention were tested for the ability to deplete monocytes in the above assay in one or more experimental runs and the results are shown in Table 3 below. Potency of the compounds of the invention is reported as a pEC50 value. The pEC50 value is the negative log of the EC50 value, wherein the EC50 value is the half maximal effective concentration measured in molar (M). For compounds tested in more than one experimental run, the pEC50 value is reported as an average or as the individual values measured

Question: `CC(C)N(C)[C@@H]1CC[C@H](N2CC[C@H](Nc3ncnc4ccc(C(F)(F)F)cc34)C2=O)[C@H](NC(=O)CCCNC(=O)CCCC(=O)NCCCOCCCNC(=O)C2CC(=O)N(C)C2c2cccnc2)C1` (stereo in doubt) [Example 21, N1-(4-(((1R,2S,5R)-5-(Isopropyl(methyl)amino)-2-((S)-2-oxo-3-((6-(trifluoromethyl)quinazolin-4-yl)amino)pyrrolidin-1-yl)cyclohexyl)amino)-4-oxobutyl)-N5-(3-(3-((2S,3S)-1-methyl-5-oxo-2-(pyridin-3-yl)pyrrolidine-3-carboxamido)propoxy)propyl)glutaramide] was tested. Which EC50 did it give?
Answer: 0.631 nM

Question: With `CC(C)N(C)[C@@H]1CC[C@H](N2CC[C@H](Nc3ncnc4ccc(C(F)(F)F)cc34)C2=O)[C@H](NC(=O)C23CCC(NC(=O)CCOCCOCCOCCNC(=O)[C@H]4CC(=O)N(C)[C@@H]4c4cccnc4)(CC2)CC3)C1` [Example 25, (2S,3S)-N-(2-(2-(2-(3-((4-(((1R,2S,5R)-5-(Isopropyl(methyl)amino)-2-((S)-2-oxo-3-((6-(trifluoromethyl)quinazolin-4-yl)amino)pyrrolidin-1-yl)cyclohexyl)carbamoyl)bicyclo[2.2.2]octan-1-yl)amino)-3-oxopropoxy)ethoxy)ethoxy)ethyl)-1-methyl-5-oxo-2-(pyridin-3-yl)pyrrolidine-3-carboxamide] as the compound, how does the EC50 read?
Answer: 2 nM

Question: With `CC(C)N(C)[C@@H]1CC[C@H](N2CC[C@H](Nc3ncnc4ccc(C(F)(F)F)cc34)C2=O)[C@H](NC(=O)[C@H]2C[C@H](NC(=O)CCOCCNC(=O)CCOCCNC(=O)[C@@H]3CC(=O)N(C)[C@H]3c3cccnc3)C2)C1` [Example 45, (2S,3S)-N-(2-(3-((2-(3-(((1R,3r)-3-(((1R,2S,5R)-5-(Isopropyl(methyl)amino)-2-((S)-2-oxo-3-((6-(trifluoromethyl)quinazolin-4-yl)amino)pyrrolidin-1-yl)cyclohexyl)carbamoyl)cyclobutyl)amino)-3-oxopropoxy)ethyl)amino)-3-ixopropoxy)ethyl)-1-methyl-5-oxo-2-(pyridin-3-yl)pyrrolidine-3-carboxamide] as the compound, how does the EC50 read?
Answer: 2 nM

Question: With `CC(C)N(C)[C@@H]1CC[C@H](N2CC[C@H](Nc3ncnc4ccc(C(F)(F)F)cc34)C2=O)[C@H](NC(=O)CCCOC[C@H]2CC[C@H](COCCNC(=O)[C@H]3CC(=O)N(C)[C@@H]3c3cccnc3)CC2)C1` [Example 58, (2S,3S)-N-(2-(((1R,4S)-4-((4-(((1R,2S,5R)-5-(Isopropyl(methyl)amino)-2-((S)-2-oxo-3-((6-(trifluoromethyl)quinazolin-4-yl)amino)pyrrolidin-1-yl)cyclohexyl)amino)-4-oxobutoxy)methyl)cyclohexyl)methoxy)ethyl)-1-methyl-5-oxo-2-(pyridin-3-yl)pyrrolidine-3-carboxamide] as the compound, how does the EC50 read?
Answer: 7.94 nM

Question: How did the EC50 turn out when `CC(C)N(C)[C@@H]1CC[C@H](N2CC[C@H](Nc3ncnc4ccc(C(F)(F)F)cc34)C2=O)[C@H](NC(=O)CCCOCC23CCC(COCCNC(=O)[C@H]4CC(=O)N(C)[C@@H]4c4cccnc4)(CC2)CC3)C1` [Example 59] was run?
Answer: 1.58 nM

Question: Which EC50 does the source give for `CC(C)N(C)[C@@H]1CC[C@H](N2CC[C@H](Nc3ncnc4ccc(C(F)(F)F)cc34)C2=O)[C@H](NC2CCC(C(=O)NCCOCCOCCNC(=O)[C@H]3CC(=O)N(C)[C@@H]3c3cccnc3)CC2)C1` (stereo partly drawn) [Example 68, (2S,3S)-N-(2-(2-(2-(4-(((1R,2S,5R)-5-(Isopropyl(methyl)amino)-2-((S)-2-oxo-3-((6-(trifluoromethyl)quinazolin-4-yl)amino)pyrrolidin-1-yl)cyclohexyl)amino)cyclohexane-1-carboxamido)ethoxy)ethoxy)ethyl)-1-methyl-5-oxo-2-(pyridin-3-yl)pyrrolidine-3-carboxamide] here?
Answer: 100000 nM

Question: `CC(C)N(C)[C@@H]1CC[C@H](N2CC[C@H](Nc3ncnc4ccc(C(F)(F)F)cc34)C2=O)[C@H](NC(=O)COCCNC(=O)CNC(=O)COCCOCCNC(=O)[C@H]2CC(=O)N(C)[C@@H]2c2cccnc2)C1` [Example 78, (2S,3S)-N-(1-(((1R,2S,5R)-5-(Isopropyl(methyl)amino)-2-((S)-2-oxo-3-((6-(trifluoromethyl)quinazolin-4-yl)amino)pyrrolidin-1-yl)cyclohexyl)amino)-1,7,10-trioxo-3,12,15-trioxa-6,9-diazaheptadecan-17-yl)-1-methyl-5-oxo-2-(pyridin-3-yl)pyrrolidine-3-carboxamide] was tested. Which EC50 did it give?
Answer: 2.51 nM

Question: `CC(C)N(C)[C@@H]1CC[C@H](N2CC[C@H](Nc3ncnc4ccc(C(F)(F)F)cc34)C2=O)[C@H](NC(=O)COCC(=O)N2CCN(C(=O)N3CCN(C(=O)COCCNC(=O)[C@H]4CC(=O)N(C)[C@@H]4c4cccnc4)CC3)CC2)C1` [Example 84, (2S,3S)-N-(2-(2-(4-(4-(2-(2-(((1R,2S,5R)-5-(isopropyl(methyl)amino)-2-((S)-2-oxo-3-((6-(trifluoromethyl)quinazolin-4-yl)amino)pyrrolidin-1-yl)cyclohexyl)amino)-2-oxoethoxy)acetyl)piperazine-1-carbonyl)piperazin-1-yl)-2-oxoethoxy)ethyl)-1-methyl-5-oxo-2-(pyridin-3-yl)pyrrolidine-3-carboxamide] was tested. Which EC50 did it give?
Answer: 1 nM

Question: With `CC(C)N(C)[C@@H]1CC[C@H](N2CC[C@H](Nc3ncnc4ccc(C(F)(F)F)cc34)C2=O)[C@H](NC(=O)C2CCN(C3CCN(C(=O)CCCCCNC(=O)[C@H]4CC(=O)N(C)[C@@H]4c4cccnc4)CC3)CC2)C1` [Example 87, N-((1R,2S,5R)-5-(Isopropyl(methyl)amino)-2-((S)-2-oxo-3-((6-(trifluoromethyl)quinazolin-4-yl)amino)pyrrolidin-1-yl)cyclohexyl)-1'-(6-((2S,3S)-1-methyl-5-oxo-2-(pyridin-3-yl)pyrrolidine-3-carboxamido)hexanoyl)-[1,4'-bipiperidine]-4-carboxamide] as the compound, how does the EC50 read?
Answer: 0.398 nM

Question: `CC(C)N(C)[C@@H]1CC[C@H](N2CC[C@H](Nc3ncnc4ccc(C(F)(F)F)cc34)C2=O)[C@H](NC(=O)c2cc(OCCOCCOCCOCCOCCNC(=O)[C@H]3CC(=O)N(C)[C@@H]3c3cccnc3)ccn2)C1` [Example 88, N-((1R,2S,5R)-5-(Isopropyl(methyl)amino)-2-((S)-2-oxo-3-((6-(trifluoromethyl)quinazolin-4-yl)amino)pyrrolidin-1-yl)cyclohexyl)-4-((1-((2S,3S)-1-methyl-5-oxo-2-(pyridin-3-yl)pyrrolidin-3-yl)-1-oxo-5,8,11,14-tetraoxa-2-azahexadecan-16-yl)oxy)picolinamide] was tested. Which EC50 did it give?
Answer: 7.94 nM

Question: `CC(C)N(C)[C@@H]1CC[C@H](N2CC[C@H](Nc3ncnc4ccc(C(F)(F)F)cc34)C2=O)[C@H](NC(=O)c2cc(OCCOCCOCCOCCNC(=O)[C@H]3CC(=O)N(C)[C@@H]3c3cccnc3)ccn2)C1` [Example 89, N-((1R,2S,5R)-5-(Isopropyl(methyl)amino)-2-((S)-2-oxo-3-((6-(trifluoromethyl)quinazolin-4-yl)amino)pyrrolidin-1-yl)cyclohexyl)-4-((1-((2S,3S)-1-methyl-5-oxo-2-(pyridin-3-yl)pyrrolidin-3-yl)-1-oxo-5,8,11-trioxa-2-azatridecan-13-yl)oxy)picolinamide] was tested. Which EC50 did it give?
Answer: 25.1 nM

Question: For `CC(C)N(C)[C@@H]1CC[C@H](N2CC[C@H](Nc3ncnc4ccc(C(F)(F)F)cc34)C2=O)[C@H](NC(=O)c2ccc(OC3CCN(CCOCCOCCNC(=O)[C@H]4CC(=O)N(C)[C@@H]4c4cccnc4)CC3)cc2)C1` [Example 91], which EC50 is on record?
Answer: 0.794 nM

Question: For `CC(C)N(C)[C@@H]1CC[C@H](N2CC[C@H](Nc3ncnc4ccc(C(F)(F)F)cc34)C2=O)[C@H](NC(=O)c2cnn(C3CCN(CCOCCOCCNC(=O)[C@H]4CC(=O)N(C)[C@@H]4c4cccnc4)CC3)c2)C1` [Example 92, N-((1R,2S,5R)-5-(Isopropyl(methyl)amino)-2-((S)-2-oxo-3-((6-(trifluoromethyl)quinazolin-4-yl)amino)pyrrolidin-1-yl)cyclohexyl)-1-(1-(2-(2-(2-((2S,3S)-1-methyl-5-oxo-2-(pyridin-3-yl)pyrrolidine-3-carboxamido)ethoxy)ethoxy)ethyl)piperidin-4-yl)-1H-pyrazole-4-carboxamide], which EC50 is on record?
Answer: 25.1 nM
